Results published in ChEMBL document CHEMBL3045929, “Design, synthesis, and evaluation of novel indomethacinantioxidant codrugs as gastrosparing NSAIDs” (2012).

Experiments:
Rattus norvegicus [1] = assay: Antiulcerogenic activity in fasted Rattus norvegicus Sprague-Dawley (rat) stomach assessed as ulcer index at 67.6 mg/kg, po after 8 hr (reference value: 0.23 +/- 0.09); format: functional
Rattus norvegicus [2] = assay: Anti-inflammatory activity in Rattus norvegicus Sprague-Dawley (rat) assessed as increase in carrageenan-induced paw edema at 16.9 mg/kg, po measured at 4 hr by plethysmometer (reference value: 81.58 +/- 0.63 %); format: functional
Mus musculus [3] = assay: Analgesic activity in Mus musculus (mouse) assessed as inhibition of acetic acid-induced abdominal writhing at 14.08 mg/kg, po measured for 20 min relative to vehicle-treated control; conditions: Abdomen
Rattus norvegicus [4] = assay: Anti-inflammatory activity in Rattus norvegicus Sprague-Dawley (rat) assessed as increase in carrageenan-induced paw edema at 16.9 mg/kg, po measured at 2 hr by plethysmometer (reference value: 64.73 +/- 0.72 %); format: functional
Rattus norvegicus [5] = assay: Anti-inflammatory activity in Rattus norvegicus Sprague-Dawley (rat) assessed as increase in carrageenan-induced paw edema at 16.6 mg/kg, po measured at 2 hr by plethysmometer (reference value: 64.73 +/- 0.72 %); format: functional
Mus musculus [6] = assay: Analgesic activity in Mus musculus (mouse) assessed as inhibition of acetic acid-induced abdominal writhing at 13.9 mg/kg, po measured for 20 min relative to vehicle-treated control; conditions: Abdomen
Rattus norvegicus [7] = assay: Antiulcerogenic activity in fasted Rattus norvegicus Sprague-Dawley (rat) stomach assessed as ulcer index at 66.5 mg/kg, po after 8 hr (reference value: 0.23 +/- 0.09); format: functional
Rattus norvegicus [8] = assay: Anti-inflammatory activity in Rattus norvegicus Sprague-Dawley (rat) assessed as increase in carrageenan-induced paw edema at 16.6 mg/kg, po measured at 4 hr by plethysmometer (reference value: 81.58 +/- 0.63 %); format: functional
Mus musculus [9] = assay: Analgesic activity in Mus musculus (mouse) assessed as inhibition of acetic acid-induced abdominal writhing at 13.69 mg/kg, po measured for 20 min relative to vehicle-treated control; conditions: Abdomen
Rattus norvegicus [10] = assay: Anti-inflammatory activity in Rattus norvegicus Sprague-Dawley (rat) assessed as increase in carrageenan-induced paw edema at 16.4 mg/kg, po measured at 2 hr by plethysmometer (reference value: 64.73 +/- 0.72 %); format: functional
Rattus norvegicus [11] = assay: Anti-inflammatory activity in Rattus norvegicus Sprague-Dawley (rat) assessed as increase in carrageenan-induced paw edema at 16.4 mg/kg, po measured at 4 hr by plethysmometer (reference value: 81.58 +/- 0.63 %); format: functional
Rattus norvegicus [12] = assay: Antiulcerogenic activity in fasted Rattus norvegicus Sprague-Dawley (rat) stomach assessed as ulcer index at 65.7 mg/kg, po after 8 hr (reference value: 0.23 +/- 0.09); format: functional
Rattus norvegicus [13] = assay: Anti-inflammatory activity in Rattus norvegicus Sprague-Dawley (rat) assessed as increase in carrageenan-induced paw edema at 16.5 mg/kg, po measured at 2 hr by plethysmometer (reference value: 64.73 +/- 0.72 %); format: functional
Mus musculus [14] = assay: Analgesic activity in Mus musculus (mouse) assessed as inhibition of acetic acid-induced abdominal writhing at 13.75 mg/kg, po measured for 20 min relative to vehicle-treated control; conditions: Abdomen
Rattus norvegicus [15] = assay: Anti-inflammatory activity in Rattus norvegicus Sprague-Dawley (rat) assessed as increase in carrageenan-induced paw edema at 16.5 mg/kg, po measured at 4 hr by plethysmometer (reference value: 81.58 +/- 0.63 %); format: functional
Rattus norvegicus [16] = assay: Antiulcerogenic activity in fasted Rattus norvegicus Sprague-Dawley (rat) stomach assessed as ulcer index at 66 mg/kg, po after 8 hr (reference value: 0.23 +/- 0.09); format: functional
Rattus norvegicus [17] = assay: Antiulcerogenic activity in fasted Rattus norvegicus Sprague-Dawley (rat) stomach assessed as ulcer index at 64.1 mg/kg, po after 8 hr (reference value: 0.23 +/- 0.09); format: functional
Mus musculus [18] = assay: Analgesic activity in Mus musculus (mouse) assessed as inhibition of acetic acid-induced abdominal writhing at 13.35 mg/kg, po measured for 20 min relative to vehicle-treated control; conditions: Abdomen
Rattus norvegicus [19] = assay: Anti-inflammatory activity in Rattus norvegicus Sprague-Dawley (rat) assessed as increase in carrageenan-induced paw edema at 16.8 mg/kg, po measured at 2 hr by plethysmometer (reference value: 64.73 +/- 0.72 %); format: functional
Rattus norvegicus [20] = assay: Anti-inflammatory activity in Rattus norvegicus Sprague-Dawley (rat) assessed as increase in carrageenan-induced paw edema at 16.8 mg/kg, po measured at 4 hr by plethysmometer (reference value: 81.58 +/- 0.63 %); format: functional
Rattus norvegicus [21] = assay: Anti-inflammatory activity in Rattus norvegicus Sprague-Dawley (rat) assessed as increase in carrageenan-induced paw edema at 15.6 mg/kg, po measured at 2 hr by plethysmometer (reference value: 64.73 +/- 0.72 %); format: functional
Rattus norvegicus [22] = assay: Anti-inflammatory activity in Rattus norvegicus Sprague-Dawley (rat) assessed as increase in carrageenan-induced paw edema at 15.6 mg/kg, po measured at 4 hr by plethysmometer (reference value: 81.58 +/- 0.63 %); format: functional
Rattus norvegicus [23] = assay: Antiulcerogenic activity in fasted Rattus norvegicus Sprague-Dawley (rat) stomach assessed as ulcer index at 62.2 mg/kg, po after 8 hr (reference value: 0.23 +/- 0.09); format: functional
Mus musculus [24] = assay: Analgesic activity in Mus musculus (mouse) assessed as inhibition of acetic acid-induced abdominal writhing at 12.9 mg/kg, po measured for 20 min relative to vehicle-treated control; conditions: Abdomen
Rattus norvegicus [25] = assay: Anti-inflammatory activity in Rattus norvegicus Sprague-Dawley (rat) assessed as increase in carrageenan-induced paw edema at 16 mg/kg, po measured at 2 hr by plethysmometer (reference value: 64.73 +/- 0.72 %); format: functional
Rattus norvegicus [26] = assay: Antiulcerogenic activity in fasted Rattus norvegicus Sprague-Dawley (rat) stomach assessed as ulcer index at 67.1 mg/kg, po after 8 hr (reference value: 0.23 +/- 0.09); format: functional
Rattus norvegicus [27] = assay: Anti-inflammatory activity in Rattus norvegicus Sprague-Dawley (rat) assessed as increase in carrageenan-induced paw edema at 16 mg/kg, po measured at 4 hr by plethysmometer (reference value: 81.58 +/- 0.63 %); format: functional
Mus musculus [28] = assay: Analgesic activity in Mus musculus (mouse) assessed as inhibition of acetic acid-induced abdominal writhing at 13.96 mg/kg, po measured for 20 min relative to vehicle-treated control; conditions: Abdomen
Rattus norvegicus [29] = assay: Anti-inflammatory activity in Rattus norvegicus Sprague-Dawley (rat) assessed as increase in carrageenan-induced paw edema at 12 mg/kg, po measured at 4 hr by plethysmometer (reference value: 81.58 +/- 0.63 %); format: functional
Rattus norvegicus [30] = assay: Antiulcerogenic activity in fasted Rattus norvegicus Sprague-Dawley (rat) stomach assessed as ulcer index at 48 mg/kg, po after 8 hr (reference value: 0.23 +/- 0.09); format: functional
Rattus norvegicus [31] = assay: Anti-inflammatory activity in Rattus norvegicus Sprague-Dawley (rat) assessed as increase in carrageenan-induced paw edema at 12 mg/kg, po measured at 2 hr by plethysmometer (reference value: 64.73 +/- 0.72 %); format: functional
Mus musculus [32] = assay: Analgesic activity in Mus musculus (mouse) assessed as inhibition of acetic acid-induced abdominal writhing at 10 mg/kg, po measured for 20 min relative to vehicle-treated control; conditions: Abdomen

Work on `C=CCc1ccc(OC(=O)Cc2c(C)n(C(=O)c3ccc(Cl)cc3)c3ccc(OC)cc23)c(OC)c1` yielded a UI (Rattus norvegicus [1]) of 0.93, an Activity (Rattus norvegicus [2]) of 45.39% and an inhibition in vivo at 14.08 mg/kg (Mus musculus [3]) of 84.8%. For the same compound, the Activity (Rattus norvegicus [4]) was 44.33%.

`COc1ccc2c(c1)c(CC(=O)O[C@@H]1C[C@H](C)CC[C@H]1C(C)C)c(C)n2C(=O)c1ccc(Cl)cc1` showed an Activity (Rattus norvegicus [5]) of 52.01%, an inhibition in vivo at 13.9 mg/kg (Mus musculus [6]) of 73.9% and a UI (Rattus norvegicus [7]) of 1.41. The Activity (Rattus norvegicus [8]) was 55.54%.

In the case of `COc1ccc2c(c1)c(CC(=O)Oc1cc(C)ccc1C(C)C)c(C)n2C(=O)c1ccc(Cl)cc1`, the inhibition in vivo at 13.69 mg/kg (Mus musculus [9]) is reported as 73.2%, the Activity (Rattus norvegicus [10]) is reported as 50.25% and the Activity (Rattus norvegicus [11]) is reported as 54.61%. It also gave a UI (Rattus norvegicus [12]) of 1.37.

`COc1ccc2c(c1)c(CC(=O)Oc1ccc(C=O)cc1OC)c(C)n2C(=O)c1ccc(Cl)cc1` gave an Activity (Rattus norvegicus [13]) of 47.13%, an inhibition in vivo at 13.75 mg/kg (Mus musculus [14]) of 81.5% and an Activity (Rattus norvegicus [15]) of 49.87%. For the same compound, the UI (Rattus norvegicus [16]) was 1.23.

With `COc1ccc2c(c1)c(CC(=O)Oc1ccc3ccc(=O)oc3c1)c(C)n2C(=O)c1ccc(Cl)cc1` the UI (Rattus norvegicus [17]) was 1.28, the inhibition in vivo at 13.35 mg/kg (Mus musculus [18]) was 75.2% and the Activity (Rattus norvegicus [19]) was 48.06%. For the same compound, the Activity (Rattus norvegicus [20]) was 50.27%.

`COc1ccc2c(c1)c(CC(=O)Oc1ccccc1OC)c(C)n2C(=O)c1ccc(Cl)cc1` gave an Activity (Rattus norvegicus [21]) of 46.89%, an Activity (Rattus norvegicus [22]) of 48.21% and a UI (Rattus norvegicus [23]) of 1.15. For the same compound, the inhibition in vivo at 12.9 mg/kg (Mus musculus [24]) was 78.7%.

`COc1ccc2c(c1)c(CC(=O)Oc1ccc3c(c1)OCO3)c(C)n2C(=O)c1ccc(Cl)cc1` gave an Activity (Rattus norvegicus [25]) of 43.17%, a UI (Rattus norvegicus [26]) of 0.79 and an Activity (Rattus norvegicus [27]) of 44.52%. It also gave an inhibition in vivo at 13.96 mg/kg (Mus musculus [28]) of 86%.

`COc1ccc2c(c1)c(CC(=O)O)c(C)n2C(=O)c1ccc(Cl)cc1` [INDOMETHACIN] was tested, and the Activity (Rattus norvegicus [29]) was 57.39%, the UI (Rattus norvegicus [30]) was 5.54 and the Activity (Rattus norvegicus [31]) was 48.35%. For the same compound, the inhibition in vivo at 10 mg/kg (Mus musculus [32]) was 74.9%.
